Reference: patent US10435396B2, “2-substituted indazoles, methods for producing same, pharmaceutical preparations that contain same, and use of same to produce drugs” (Bayer Pharma Aktiengesellschaft, priority 2016, dated 2019)

Assays:
human IRAK4 = human IRAK4 (Homo sapiens (Human), UniProt Q9NWZ3); experiment: IRAK4 kinase assay (IRAK4 TR-FRET assay); format: biochemical; conditions: 1 mM ATP
Description: The IRAK4-inhibitory activity of the substances according to the invention was measured in the IRAK4 TR-FRET assay (TR-FRET=Time Resolved Fluorescence Resonance Energy Transfer) described hereinafter.
Recombinant fusion protein from N-terminal GST (glutathione S-transferase) and human IRAK4, expressed in baculovirus-infected insect cells (Hi5, BTI-TN-5B1-4, cell line purchased from Invitrogen, catalogue No. B855-02) and purified via affinity chromatography, was used as enzyme. The substrate used for the kinase reaction was the biotinylated peptide biotin-Ahx-[…] (C-terminus in amide form) which can be purchased, for example, from Biosyntan GmbH (Berlin-Buch).
For the assay, 11 different concentrations in the range from 20 μM to 0.073 nM were prepared from a 2 mM solution of the test substance in DMSO. 50 nl of the respective solution were pipetted into a black low-volume 384-well microtitre plate (Greiner Bio-One, Frickenhausen, Germany), 2 μl of a solution of IRAK4 in assay buffer [50 mM HEPES pH 7.5, 5 mM MgCl2, 1.0 mM dithiothreitol, 30 μM activated sodium orthovanadate, 0.1% (w/v) of bovine gamma-globulin (BGG) 0.04% (v/v) nonidet-P40 (Sigma)] were added and the mixture was incubated for 15 min to allow prebinding of the substances to the enzyme prior to the kinase reaction. The kinase reaction was then started by addition of 3 μl of a solution of adenosine triphosphate (ATP, 1.67 mM=final concentration in 5 μl of assay volume: 1 mM) and peptide substrate (0.83 μM=final concentration in 5 μl assay volume: 0.5 μM) in assay buffer, and the resulting mixture was incubated at 22° C. for the reaction time of 45 min. The concentration of the IRAK4 was adjusted to the respective activity of the enzyme and set such that the assay was carried out in the linear range. Typical concentrations were in the order of about 0.2 nM. The reaction was stopped by addition of 5 μl of a solution of TR-FRET detection reagents [0.1 μM streptavidin-XL665 (Cisbio Bioassays; France, catalogue No. 610SAXLG)] and 1.5 nM anti-phosphoserine antibody [Merck Millipore, “STK Antibody”, catalogue No. 35-002] and 0.6 nM LANCE EU-W1024-labelled anti-mouse-IgG antibody (Perkin-Elmer, product No. AD0077; alternatively, it is possible to use a terbium cryptate-labelled anti-mouse-IgG antibody from Cisbio Bioassays) in aqueous EDTA solution (100 mM EDTA, 0.4% [w/v] bovine serum albumin [BSA] in 25 mM HEPES pH 7.5).
The resulting mixture was incubated at 22° C. for 1 h to allow formation of a complex of the biotinylated phosphorylated substrate and the detection reagents. The amount of the phosphorylated substrate was then evaluated by measuring the resonance energy transfer from europium chelate-labelled anti-mouse-IgG antibody to streptavidin-XL665. To this end, the fluorescence emissions at 620 nm and 665 nm were measured after excitation at 350 nm in a TR-FRET measuring instrument, for example a Rubystar (BMG Labtechnologies, Offenburg, Germany) or a Viewlux (Perkin-Elmer). The ratio of the emissions at 665 nm and 622 nm was taken as a measure of the amount of phosphorylated substrate. The data were normalized (enzyme reaction without test substance=0% inhibition; all other assay components but no enzyme=100% inhibition). Typically, the test substances were tested on the same microtitre plates at 11 different concentrations in the range from 20 μM to 0.073 nM (20 μM, 5.7 μM, 1.6 μM, 0.47 μM, 0.13 μM, 38 nM, 11 nM, 3.1 nM, 0.89 nM, 0.25 nM and 0.073 nM). The dilution series were prepared prior to the assay (2 mM to 7.3 nM in 100% DMSO) by serial dilutions. The IC50 values were calculated using a 4-parameter fit.

[1] = system: secretion of TNF-α in THP-1 cells; experiment: TNF-α secretion in THP-1 cells (LPS-triggered); format: cell-based, human; conditions: Homo sapiens, THP-1, 17 h, LPS 0.05 μg/ml, read-out: IC50 with respect to the secretion of TNF-α in THP-1 cells
Description: TNF-α Secretion in THP-1 Cells
With the aid of this test, it is possible to test substances for their ability to inhibit secretion of TNF-α (tumour necrosis factor alpha) in THP-1 cells (human monocytic acute leukaemia cell line). TNF-α is a cytokine involved in inflammatory processes. In this test, TNF-α secretion is triggered by incubation with bacterial lipopolysaccharide (LPS).
THP-1 cells are kept in continuous suspension cell culture [RPMI 1460 medium with L-Glutamax (Gibco, Cat No. 61870-044) supplemented with foetal calf serum (FCS) 10% (Invitrogen, Cat No. 10082-147), 1% penicillin/streptomycin (Gibco BRL, Cat No. 15140-114)] and should not exceed a cell concentration of 1×10^6 cells/ml. The assay is carried out in cell culture medium (RPMI 1460 medium with L-Glutamax supplemented with FCS 10%).
In each case 2-2.5 μl of the cell suspension (corresponds to 4000 cells) per well were dispensed into a 384-well test plate (Greiner, Cat No. 784076), in each of which 40-50 nl substance had been dissolved in 100% DMSO. This was done using […] in the range from 20 μM to 0.073 nM for each substance. The cells were incubated at room temperature for 15 min. 2-2.5 μl of 0.1 μg/ml LPS (Sigma, Escherichia coli 055:B5, Cat. No. L5418) dissolved in cell culture medium (final concentration 0.05 μg/ml) were then dispensed into each well. As neutral control, cells were treated with 0.05 μg/ml LPS and 1% DMSO and, as inhibitor control, with 1% DMSO only.
The plates were centrifuged at 80 g for 30 s and incubated at 37° C., 5% CO2 and 95% atmospheric humidity for 17 h. The amount of TNF-α was determined using the TNF-alpha HTRF Detection Kit (Cisbio, Cat No. 62TNFPEB/C). To this end, 2 μl of the detection solution in each case, consisting of anti-TNF-α-XL665 conjugate and anti-TNF-α-cryptate conjugate dissolved in the reconstitution buffer in accordance with the manufacturer's instructions, were added for the HTRF (Homogeneous Time-Resolved Fluorescence) test. After the addition, the mixture was incubated either at room temperature for 3 h or at 4° C. overnight. The signals were then read at 620/665 nm using an HTRF-enabled measuring instrument such as the BMG PheraStar.
The activity of the substances is expressed as the ratio between neutral and inhibitor control in percent. The IC50 values were calculated using a 4-parameter fit.

Chain of human IRAK4 (Q9NWZ3 whole entry): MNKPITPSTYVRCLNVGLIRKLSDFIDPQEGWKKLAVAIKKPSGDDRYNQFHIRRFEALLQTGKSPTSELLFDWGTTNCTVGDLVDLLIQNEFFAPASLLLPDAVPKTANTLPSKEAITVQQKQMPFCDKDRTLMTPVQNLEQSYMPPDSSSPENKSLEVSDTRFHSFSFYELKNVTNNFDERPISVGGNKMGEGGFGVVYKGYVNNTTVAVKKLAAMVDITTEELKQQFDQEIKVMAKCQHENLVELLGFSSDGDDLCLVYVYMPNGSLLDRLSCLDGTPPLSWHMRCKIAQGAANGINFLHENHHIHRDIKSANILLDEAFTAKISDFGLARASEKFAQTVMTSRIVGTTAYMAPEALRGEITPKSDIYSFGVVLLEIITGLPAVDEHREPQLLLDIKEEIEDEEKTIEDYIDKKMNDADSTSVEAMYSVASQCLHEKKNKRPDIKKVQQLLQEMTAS

## COc1cc2nn([C@H]3C[C@@H]4C[C@H]3CN4C)cc2cc1NC(=O)c1cccc(C(F)(F)F)n1 (relative stereo) [Example 19, rel-N-{6-Methoxy-2-[(1S,4S,5S)-2-methyl-2-azabicyclo[2.2.1]hept-5-yl]-2H-indazol-5-yl}-6-(trifluoromethyl)pyridine-2-carboxamide]
Human IRAK4
  IC50: 9 nM
[1]
  IC50: 190 nM

## COc1cc2nn(C3CCN(CC(F)(F)F)CC3)cc2cc1NC(=O)c1cccc(C(F)(F)F)n1 [Example 3, N-{6-Methoxy-2-[1-(2,2,2-trifluoroethyl)piperidin-4-yl]-2H-indazol-5-yl}-6-(trifluoromethyl)pyridine-2-carboxamide]
Human IRAK4
  IC50: 7 nM
[1]
  IC50: 750 nM

## COc1cc2nn(C3CCN(S(=O)(=O)NC(C)=O)CC3)cc2cc1NC(=O)c1cccc(C(F)(F)F)n1 [Example 8, N-{2-[1-(Acetylsulphamoyl)piperidin-4-yl]-6-methoxy-2H-indazol-5-yl}-6-(trifluoromethyl)pyridine-2-carboxamide]
Human IRAK4
  IC50: 8 nM
[1]
  IC50: 520 nM

## O=C(Nc1cc2cn(C3CCS(=O)(=O)CC3)nc2cc1OCC1CC1)c1cccc(C(F)(F)F)n1 [Example 17, N-[6-(Cyclopropylmethoxy)-2-(1,1-dioxidotetrahydro-2H-thiopyran-4-yl)-2H-indazol-5-yl]-6-(trifluoromethyl)pyridine-2-carboxamide]
Human IRAK4
  IC50: 20 nM
[1]
  IC50: 110 nM

## COc1cc2nn(C3CNC(=O)C3)cc2cc1NC(=O)c1cccc(C(F)(F)F)n1 (stereo not drawn) [Example 22, N-[6-Methoxy-2-(5-oxopyrrolidin-3-yl)-2H-indazol-5-yl]-6-(trifluoromethyl)pyridine-2-carboxamide]
Human IRAK4
  IC50: 13 nM
[1]
  IC50: 150 nM

## COc1cc2nn(C3CCOCC3)cc2cc1NC(=O)c1csc(C)n1 [Example 25, N-[6-Methoxy-2-(tetrahydro-2H-pyran-4-yl)-2H-indazol-5-yl]-2-methyl-1,3-thiazole-4-carboxamide]
Human IRAK4
  IC50: 10 nM
[1]
  IC50: 840 nM

## COc1cc2nn(C3CCOCC3)cc2cc1NC(=O)c1cccc(N)n1 [Example 26, 6-Amino-N-[6-methoxy-2-(tetrahydro-2H-pyran-4-yl)-2H-indazol-5-yl]pyridine-2-carboxamide]
Human IRAK4
  IC50: 6 nM
[1]
  IC50: 220 nM

## COc1cc2nn(C3CCOCC3)cc2cc1NC(=O)c1ccnc(C(C)C)n1 [Example 27, 2-Isopropyl-N-[6-methoxy-2-(tetrahydro-2H-pyran-4-yl)-2H-indazol-5-yl]pyrimidine-4-carboxamide]
Human IRAK4
  IC50: 111 nM
[1]
  IC50: 1790 nM

## COc1cc2nn(C3CCOC3)cc2cc1NC(=O)c1cccc(C(F)(F)F)n1 (stereo not drawn) [Example 29, N-[6-Methoxy-2-(tetrahydrofuran-3-yl)-2H-indazol-5-yl]-6-(trifluoromethyl)pyridine-2-carboxamide]
Human IRAK4
  IC50: 10 nM
[1]
  IC50: 630 nM

## O=C(Nc1cc2cn(C3CCOCC3)nc2cc1Cl)c1cccc(C(F)(F)F)n1 [Example 30, N-[6-Chloro-2-(tetrahydro-2H-pyran-4-yl)-2H-indazol-5-yl]-6-(trifluoromethyl)pyridine-2-carboxamide]
Human IRAK4
  IC50: 47 nM
[1]
  IC50: 280 nM

## O=C(Nc1cc2cn(C3CCOCC3)nc2cc1Cl)c1cccc(C(F)F)n1 [Example 31, N-[6-Chloro-2-(tetrahydro-2H-pyran-4-yl)-2H-indazol-5-yl]-6-(difluoromethyl)pyridine-2-carboxamide]
Human IRAK4
  IC50: 22 nM
[1]
  IC50: 90 nM

## CC(C)(O)c1cccc(C(=O)Nc2cc3cn(C4CCS(=O)(=O)CC4)nc3cc2Cl)n1 [Example 32, N-[6-Chloro-2-(1,1-dioxidotetrahydro-2H-thiopyran-4-yl)-2H-indazol-5-yl]-6-(2-hydroxypropan-2-yl)pyridine-2-carboxamide]
Human IRAK4
  IC50: 34 nM
[1]
  IC50: 280 nM

## COC(=O)c1cc2nn(C3CCOCC3)cc2cc1NC(=O)c1cccc(C(F)(F)F)n1 [Example 33, Methyl 2-(tetrahydro-2H-pyran-4-yl)-5-({[6-(trifluoromethyl)pyridin-2-yl]carbonyl}amino)-2H-indazole-6-carboxylate]
Human IRAK4
  IC50: 11 nM
[1]
  IC50: 1800 nM

## CC(C)(O)c1cc2nn(C3CCOCC3)cc2cc1NC(=O)c1cccc(C(F)(F)F)n1 [Example 34, N-[6-(2-Hydroxypropan-2-yl)-2-(tetrahydro-2H-pyran-4-yl)-2H-indazol-5-yl]-6-(trifluoromethyl)pyridine-2-carboxamide]
Human IRAK4
  IC50: 6 nM
[1]
  IC50: 230 nM

## CC(C)(O)c1cc2nn([C@H]3CCOC3)cc2cc1NC(=O)c1cccc(C(F)(F)F)n1 [Example 36, N-{6-(2-Hydroxypropan-2-yl)-2-[(3S)-tetrahydrofuran-3-yl]-2H-indazol-5-yl}-6-(trifluoromethyl)pyridine-2-carboxamide]
Human IRAK4
  IC50: 28 nM
[1]
  IC50: 540 nM

## CC(C)(O)c1cc2nn([C@@H]3CCOC3)cc2cc1NC(=O)c1cccc(C(F)(F)F)n1 [Example 38, N-{6-(2-Hydroxypropan-2-yl)-2-[(3R)-tetrahydrofuran-3-yl]-2H-indazol-5-yl}-6-(trifluoromethyl)pyridine-2-carboxamide]
Human IRAK4
  IC50: 31 nM
[1]
  IC50: 630 nM

## COCCN1CCC(n2cc3cc(NC(=O)c4cccc(C(F)(F)F)n4)c(OC)cc3n2)CC1 [Example 58, N-{6-Methoxy-2-[1-(2-methoxyethyl)piperidin-4-yl]-2H-indazol-5-yl}-6-(trifluoromethyl)pyridine-2-carboxamide]
Human IRAK4
  IC50: 2 nM
